Measured values published in patent publication US10981911B2, “Imidazopyrrolopyridine as inhibitors of the JAK family of kinases” (Janssen Pharmaceutica NV, priority 2016, dated 2021).
Like-named read-outs stand apart in the source and are kept apart here.

How the values were obtained:
[1] = Solubility assays in simulated gastric and simulated intestinal fluids; assay type: physicochemical; settings: thermodynamic from solid, 2-5 days
Protocol: Test compounds were dissolved in DMSO at a concentration of 10 mM. The test compounds were dispensed (20 μL) into Nunc 1-mL-96-Deep-Well-PP plates, and the DMSO was evaporated via nitrogen blow down from a TurboVap 96 for 6 hours or until a dry residue was produced. Then, 400 μL of solubility media was added to the well containing the dry solid. […] After the incubation period, the samples were filtered through an AcroPrep 1-mL-96-Filter plate into a new 2-mL-96-Deep-Well-PP plate, and the supernatants were quantified by UV-HPLC using a 3-point calibration ranging from 0.004-0.55 mM. The solubility for each compound was calculated from the following equation: […] Solubilities are reported as long as the compound under study was sufficiently stable to complete the corresponding solubility determination.

[2] = test system: GM-CSF pSTAT5 (JAK2/JAK2); assay: GM-CSF pSTAT5 (JAK2/JAK2) cellular assay (AlphaLISA, PBMCs); assay type: cell-based; settings: PBMC, GM-CSF at 11 pg/mL
Protocol: The AlphaLISA assay (based on Alpha Technology from PerkinElmer) was performed by first plating freshly thawed PBMCs (Biological Specialty Corporation) in 384-well plates at 30,000 cells per 4 µL per well in HBSS containing 0.1% IgG-free, protease-free BSA (Jackson ImmunoResearch Cat. No. 001-000-161). The cells were then treated with 2 μL/well of compounds diluted in DMSO at half-log titrated concentrations, with a highest test concentration of […] and 0.5% final DMSO concentration, for thirty minutes at 37° C. Next, the cells were stimulated with 2 μL/well of GM-CSF (R&D Systems Cat. No. 215-GM-050) at 11 pg/mL for fifteen minutes at 37° C. The cellular reactions were terminated by the addition of 2 µL/well of lysis buffer (PerkinElmer Cat. No. ALSU-PST5-A10K) followed by an incubation of five minutes at room temperature. 5 μL/well of acceptor mix (PerkinElmer Cat. No. ALSU-PST5-A10K) was added to the cells and incubated in the dark for one hour at room temperature. Then, 5 μL/well of donor mix (PerkinElmer Cat. No. ALSU-PST5-A10K) was added to the cells and incubated in the dark overnight at room temperature. Finally, the plates were read on a PerkinElmer EnVision for detection of the time-resolved fluorescence signal. The percentage of GM-CSF-dependent pSTAT5 inhibition was determined at the compound test concentrations; and for each compound, a dose curve was generated and the IC50 was calculated. Compound IC50 was calculated by nonlinear regression, sigmoidal dose response analysis of the half-log dilution titration curve of the compound concentration vs. Alpha signal. The term “Alpha” is defined in the IL-2 pSTAT5 (JAK1/JAK3) cellular assay description.

IFNα pSTAT4 (JAK1/TYK2) = IFNα pSTAT4 (JAK1/TYK2) cellular assay (AlphaLISA, PBMCs); assay type: cell-based; settings: PBMC, IFNα at 4 ng/mL
Protocol: The AlphaLISA assay (based on Alpha Technology from PerkinElmer) was performed by first plating freshly thawed PBMCs (Biological Specialty Corporation) in 384-well plates at 100,000 cells per 6 μL per well in DMEM (Dulbecco's Modified Eagle Medium) containing 10% FBS (fetal bovine serum) and 1,000 I.U./mL penicillin and 1,000 μg/mL streptomycin. The cells were then treated with 2 μL/well of compounds diluted in DMSO at half-log titrated concentrations, with a highest test concentration of 10 μM and 0.5% final DMSO concentration, for thirty minutes at 37° C. Next, the cells were stimulated with 2 μL/well of IFNα (PBL Assay Science Cat. No. 11101-2) at 4 ng/mL for thirty minutes at 37° C. The cellular reactions were terminated by the addition of 2 μL/well of lysis buffer (PerkinElmer Cat. No. ALSU-PST4-A10K) followed by an incubation of five minutes at room temperature. 4 μL/well of acceptor mix (PerkinElmer Cat. No. ALSU-PST4-A10K) was added to the cells and incubated in the dark for one hour at room temperature. Then, 4 μL/well of donor mix (PerkinElmer Cat. No. ALSU-PST4-A10K) was added to the cells and incubated in the dark overnight at room temperature. Finally, the plates were read on a PerkinElmer EnVision for detection of the time-resolved fluorescence signal. The percentage of IFNα-dependent pSTAT4 inhibition was determined at the compound test concentrations; and for each compound, a dose curve was generated and the IC50 was calculated. Compound IC50 was calculated by nonlinear regression, sigmoidal dose response analysis of the half-log dilution titration curve of the compound concentration vs. Alpha signal. The term “Alpha” is defined in the immediately preceding cellular assay description.

[3] = simulated gastric fluid, ambient temperature, read-out: SGF solubility
[4] = fassif, simulated intestinal fluid, fasted state pH 6.5, ambient temperature, read-out: SIF solubility

SMILES | solubility [1, 3] [µM] | solubility [1, 4] [µM] | IC50 [2] [nM] | IC50 (IFNα pSTAT4 (JAK1/TYK2)) [nM]
CC(C)(O)CNC(=O)Cc1nc2cnc3[nH]ccc3c2n1[C@H]1CC[C@H](CC#N)CC1 [Ex. 1, 2-(1-((1r,4r)-4-(Cyanomethyl)cyclohexyl)-1,6-dihydroimidazo[4,5-d]pyrrolo[2,3-b]pyridin-2-yl)-N-(2-hydroxy-2-methylpropyl)acetamide] | > 400 |  |  | 
N#CCC1CCC(n2c(-c3c[nH]cn3)nc3cnc4[nH]ccc4c32)CC1 (stereo not shown) [Ex. 2, 2-((1r,4r)-4-(2-(1H-Imidazol-4-yl)imidazo[4,5-d]pyrrolo[2,3-b]pyridin-1(6H)-yl)cyclohexyl)acetonitrile] | > 400 | > 400 | 61 | 20.8
N#CC[C@H]1CC[C@H](n2c(CC(=O)NCC3CC3)nc3cnc4[nH]ccc4c32)CC1 [Ex. 3, 2-(1-((1r,4r)-4-(Cyanomethyl)cyclohexyl)-1,6-dihydroimidazo[4,5-d]pyrrolo[2,3-b]pyridin-2-yl)-N-(cyclopropylmethyl)acetamide] | > 400 | > 400 | 21.9 | 10.1
N#CCCNC(=O)Cc1nc2cnc3[nH]ccc3c2n1[C@H]1CC[C@H](CC#N)CC1 [Ex. 4, N-(2-Cyanoethyl)-2-(1-((1r,4r)-4-(cyanomethyl)cyclohexyl)-1,6-dihydroimidazo[4,5-d]pyrrolo[2,3-b]pyridin-2-yl)acetamide] | > 400 | > 400 | 119 | 64.7
N#CC[C@H]1CC[C@H](n2c(CC(=O)NC3CCOCC3)nc3cnc4[nH]ccc4c32)CC1 [Ex. 5, 2-(1-((1r,4r)-4-(Cyanomethyl)cyclohexyl)-1,6-dihydroimidazo[4,5-d]pyrrolo[2,3-b]pyridin-2-yl)-N-(tetrahydro-2H-pyran-4-yl)acetamide] | > 400 |  | 28.9 | 38.1
N#CC[C@H]1CC[C@H](n2c(CC(=O)NCC3CCOCC3)nc3cnc4[nH]ccc4c32)CC1 [Ex. 10, 2-(1-((1r,4r)-4-(Cyanomethyl)cyclohexyl)-1,6-dihydroimidazo[4,5-d]pyrrolo[2,3-b]pyridin-2-yl)-N-((tetrahydro-2H-pyran-4-yl)methyl)acetamide] | > 400 | > 400 | 25.1 | 39.4
CC(C)(C#N)CNC(=O)Cc1nc2cnc3[nH]ccc3c2n1[C@H]1CC[C@H](CC#N)CC1 [Ex. 22, N-(2-Cyano-2-methylpropyl)-2-(1-((1r,4r)-4-(cyanomethyl)cyclohexyl)-1,6-dihydroimidazo[4,5-d]pyrrolo[2,3-b]pyridin-2-yl)acetamide] | > 400 |  | 67.3 | 38.5
N#CC[C@H]1CC[C@H](n2c(CC(=O)NCC3(O)CCC3)nc3cnc4[nH]ccc4c32)CC1 [Ex. 34, 2-(1-((1r,4r)-4-(Cyanomethyl)cyclohexyl)-1,6-dihydroimidazo[4,5-d]pyrrolo[2,3-b]pyridin-2-yl)-N-((1-hydroxycyclobutyl)methyl)acetamide] | > 400 | > 400 | 33.8 | 42.8
N#CCC12CCC(NC(=O)Cc3nc4cnc5[nH]ccc5c4n3[C@H]3CC[C@H](CC#N)CC3)(CC1)C2 [Ex. 55, N-(4-(Cyanomethyl)bicyclo[2.2.1]heptan-1-yl)-2-(1-((1r,4r)-4-(cyanomethyl)cyclohexyl)-1,6-dihydroimidazo[4,5-d]pyrrolo[2,3-b]pyridin-2-yl)acetamide] | > 400 |  | 44.6 | 40.4
N#CC[C@H]1CC[C@H](n2c(CC(=O)NCC3(O)CC3)nc3cnc4[nH]ccc4c32)CC1 [Ex. 85, 2-(1-((1r,4r)-4-(Cyanomethyl)cyclohexyl)-1,6-dihydroimidazo[4,5-d]pyrrolo[2,3-b]pyridin-2-yl)-N-((1-hydroxycyclopropyl)methyl)acetamide] | > 400 | > 400 | 75.4 | 81.4
